Laboratory results from patent publication US5705649A, “Protein staining compositions and methods” (Promega Corporation, priority 1995, dated 1998).

Assays:
bovine serum albumin = experiment: Quantitation of proteins separated by SDS-PAGE (dye extracted from excised bands); details: 66 Kd
Method: (§1) The samples used were prepared with Promega Mid-Range Molecular Weight Markers solution (Promega Corp., Madison, Wis., USA, Catalog No. V5231) (referred to hereinafter as "Promega Mid-Range [Molecular Weight] Markers or Standards") diluted into Sample Buffer. Promega Mid-Range Molecular Weight Markers is a solution, at about 0.5 mg/ml, of each of the following proteins as a molecular weight standard: phosphorylase B (apparent molecular weight: 97,400 daltons ("d")), bovine serum albumin (apparent molecular weight: 66,200 d), glutamate dehydrogenase (apparent molecular weight: 55,000 d), ovalbumin (apparent molecular weight: 42,700 d), aldolase (apparent molecular weight: 40,000 d), carbonic anhydrase (apparent molecular weight: 31,000 d), soybean trypsin inhibitor (apparent molecular weight: 21,500 d), and lysozyme (apparent molecular weight: 14,400 d). […] The samples were heated to 95° C. for 10 minutes with occasional vortex treatment in 1.5 ml Eppendorf centrifuge tubes and then centrifuged in an Eppendorf centrifuge for 20 seconds to ensure that the protein in the sample was denatured and well mixed.
(§2) A 10% SDS-PAGE gel was made as described in the Example 5. Promega Mid-Range Molecular Weight Standards were diluted into loading buffer to produce solutions containing 2.0, 1.0, 0.5, and 0.25 μg of protein per band in 5 μl of solution. Duplicate 5 μl solutions of each of these solutions were loaded into 1 of the 10 sample wells in the gel after the solutions were heated at 95° C. for 10 minutes. The gel was then electrophoresed at 160 V until the running dye just eluted from the bottom of the gel. The gel was destained, and signal from stained protein enhanced, for 90 minutes in 30% methanol, 4% acetic acid.
(§3) One of the pair of duplicate bands for the 97.4, 66.2, 55.0 and 42.7 kilodalton standards from the lanes containing 2.0, 1.0, 0.5, and 0.25 μg of protein per band were excised with a razor blade as were two control gel segments from regions of the gel not containing protein. The excised segments were placed in individual 1.5 ml Eppendorf tubes containing 2% SDS and allowed to incubate at room temperature for 72 hours. After this time, the solutions were removed from the extracted segments and acetic acid was added to 2% (v/v) final concentration. The absorption of the solutions at […] was then measured.

glutamate dehydrogenase = experiment: as above; details: 55 Kd
Method: as §1, §2, §3

ovalbumin = experiment: as above; details: 43 Kd
Method: as §1, §2, §3

phosphorylase B = experiment: as above; details: 97 kD
Method: as §1, §2, §3

[1] = tested on: Promega Mid-Range Molecular Weight Markers; experiment: Recovery of proteins separated by gel electrophoresis; details: re-run 10% SDS-PAGE, 30% methanol, 4% acetic acid, 1 hour
Method: An 8% SDS-PAGE gel was prepared as described above and loaded with Promega Mid-Range Molecular Weight Markers at a concentration of 4 μg of each protein per lane. The gel was run at 160 V with 200 μl of octyl Coomassie (Promega Green 1) stock solution in the cathode buffer (125 ml).
After electrophoresis, the gel segments containing the 97, 66, 55, 43, and 40 kilodalton proteins were excised from four consecutive lanes, minced, and placed in individual 1.5 ml Eppendorf tubes containing 0.5 ml of 50 mM ammonium bicarbonate pH 7.8 containing 0.02% SDS (w/v). The tubes were then incubated at 50° C. for 14 hours.
After that time, the tubes were spun for 1 minute in a microfuge to pellet the minced acrylamide and 0.47 ml of the supernate was removed to new 1.5 ml tubes. Two of the four solutions from each of the eluted protein samples were dried in a Speed-Vac, the other pair was first ultrafiltered through a 5000 dalton cut-off Milligen centrifugal concentrator by centrifugation in a microfuge for 30 minutes. These concentrated solutions were then dried in a Speed Vac.
The dried samples were resuspended in 25 μl of 1× loading buffer and heated at 95° C. for 10 minutes. These samples were then loaded in two 15-well, 0.75 mm 10% SDS-PAGE gels made as above. The gels were then run at 160 V with 200 μl of Promega Green 1 stock solution in the cathode buffer (125 ml). […]

[2] = tested on: Promega Mid-Range Molecular Weight Markers; experiment: Recovery of protein using novel recovery method (liquid reservoir in gel); details: 8% SDS-PAGE gel, slots below bands
Excerpt: Because Promega Green 1 can be used to stain protein during electrophoretic separations, we determined that proteins separated by gel electrophoresis can be recovered into a liquid reservoir placed in the gel. This is possible only with in-situ stained proteins because it would not be obvious where to place the liquid reservoir otherwise.
Accordingly, an 8% SDS-PAGE gel was made, loaded and run as described in the preceding example. After the run was complete, one of the glass plates encasing the gel was removed and 1.0×0.3 cm slots were excised from the gel immediately below the 97, 66, 40, and 31 kilodalton standards The gel was then placed in a flat bed electrophoresis apparatus which had its buffer chambers filled with 25 mM tris base, 192 mM glycine (electrode buffer) to the level of the central, raised portion of the apparatus. The gel was placed in the apparatus such that the acrylamide gel above the remaining glass plate was filled with electrode buffer. The slots were also filled with electrode buffer and electric connection was made between the gel and the buffer chambers by use of Whatman 3 mM paper wicks soaked in transfer buffer and then 160 V was applied to the apparatus for 2 minutes. After this, the buffer in the slots was removed and placed in 1.5 ml Eppendorf tubes, the slots were refilled with fresh electrode buffer and the voltage was reapplied. […]

CCCCCCCC(=O)N(c1ccc(OCC)cc1)c1ccc(C(=C2C=CC(=[N+](CC)Cc3cccc(S(=O)(=O)[O-])c3)C=C2)c2ccc(N(CC)Cc3cccc(S(=O)(=O)O)c3)cc2)cc1 [Promega Green 1]
Absorbance at 630 nm (bovine serum albumin; 0.25 μg/band): .052 | Absorbance at 630 nm (bovine serum albumin; 0.50 μg/band): .074 | Absorbance at 630 nm (bovine serum albumin; 1.00 μg/band): .138 | Absorbance at 630 nm (bovine serum albumin; 2.00 μg/band): .192 | Absorbance at 630 nm (glutamate dehydrogenase; 0.25 μg/band): .053 | Absorbance at 630 nm (glutamate dehydrogenase; 0.50 μg/band): .063 | Absorbance at 630 nm (glutamate dehydrogenase; 1.00 μg/band): .105 | Absorbance at 630 nm (glutamate dehydrogenase; 2.00 μg/band): .138 | Absorbance at 630 nm (ovalbumin; 0.25 μg/band): .042 | Absorbance at 630 nm (ovalbumin; 0.50 μg/band): .064 | Absorbance at 630 nm (ovalbumin; 1.00 μg/band): .126 | Absorbance at 630 nm (ovalbumin; 2.00 μg/band): .195 | Absorbance at 630 nm (phosphorylase B; 0.25 μg/band): .032 | Absorbance at 630 nm (phosphorylase B; 0.50 μg/band): .053 | Absorbance at 630 nm (phosphorylase B; 1.00 μg/band): .083 | Absorbance at 630 nm (phosphorylase B; 2.00 μg/band): .128 | detection of recovered proteins [1]: the expected protein bands could be seen in the lanes | capture of protein bands in liquid reservoir [2]: the desired protein bands had been captured by this method
